What was measured:
celastrol signature = assay: Connectivity Map query with the celastrol signature; assay type: cell-based, human; set-up: key to celastrol score (connectivity score): connectivity score, based on Kolmogorov-Smirnov statistic; details: for celastrol score (connectivity score): enrichment of the celastrol signature (1.25 μM celastrol at 6 h, LNCaP) in the compound's Connectivity Map profiles, 6 hr treatment
Description: (§1) Indeed, a major challenge in cell-based chemical biology and chemical genomics is the identification of compounds' targets (Gardner et al., 2003). We hypothesized that gene expression signatures could be used to identify compound action based on the similarity of such compound-induced signatures to signatures of existing drugs of known mechanism. We therefore employed a collection of gene expression profiles of drug-treated cell lines that was developed in our lab, termed the Connectivity Map (Lamb et al., 2006). This database comprises 453 genome-wide Affymetrix expression profiles derived from the treatment of human cell lines with 164 small molecules, primarily FDA-approved drugs. A 6 hr treatment time was chosen in an attempt to capture the primary, and potentially mechanistic, effects of the compounds rather than the downstream phenotypic consequences.
(§2) In order to use the Connectivity Map to gain insight into celastrol and gedunin function, we first defined a gene expression signature of celastrol and gedunin activity. The expression signatures of celastrol and gedunin were derived by expression profiling of RNA from LNCaP cells treated with celastrol (1.25 μM), gedunin (20 μM), and vehicle (DMSO) for 6 hr; signatures were defined using comparative marker selection to identify transcripts that distinguished between the compound- and vehicle-treated profiles by the signal-to-noise (SNR) metric. The enrichment of these signatures in the gene expression profiles of the Connectivity Map database was then assessed using a gene enrichment metric, the connectivity score, based on the Kolmogorov-Smirnov statistic (Lamb et al., 2003).
(§3) The celastrol and gedunin signatures were developed from RMA-processed microarray data from LNCaP cells treated with 1.25 μM celastrol or 20 μM gedunin for 6 hours. Comparative marker selection was used to identify markers that distinguished celastrol- and/or gedunin-treated samples from vehicle-treated samples by the median SNR (Golub et al., 1999). The top 50 markers that increased and decreased relative to vehicle-treated controls were used as the signatures.
(§4) The current version of the Connectivity Map data set (build01) contains genome-wide expression data for 453 treatment and vehicle control pairs, representing 164 distinct small molecules. Cell treatments and Affymetrix profiling were predominantly carried out in MCF7 cells with 6 hr treatments as detailed (Table 4) (Lamb et al., 2006). Enrichment of the induced and repressed genes of a signature within each Connectivity Map treatment profile was estimated with a metric based on the Kolmogorov-Smirnov statistic as described (Lamb et al., 2003, Lamb et al., 2006). Connectivity Map data are available at www.broad.mit.edu/cmap/ and GEO (accession number GSE5258).
(§5) For the celastrol and gedunin signatures, RMA-processed data was filtered and thresholded (min fold change=2, min absolute change=50, floor=10, ceiling=16000). Comparative marker selection (GenePattern) was used to identify markers that distinguished celastrol- and/or gedunin-treated samples from vehicle-treated samples by the median SNR. The top fifty markers that increased and decreased relative to vehicle treated controls were used as the celastrol, gedunin, or joint celastrol/gedunin signatures.
(§6) The current version of The Connectivity Map dataset (build01) contains genome-wide expression data for 453 treatment and vehicle control pairs, representing 164 distinct small molecules. Cell treatments were predominantly carried out in the MCF7 cell line for 6 h as detailed in Table 4. Affymetrix profiling was then carried out as described (Lamb et al., 2006).

gedunin signature = assay: Connectivity Map query with the gedunin signature; assay type: cell-based, human; set-up: key to gedunin score (connectivity score): connectivity score, based on Kolmogorov-Smirnov statistic; details: for gedunin score (connectivity score): enrichment of the gedunin signature (20 μM gedunin at 6 hours, LNCaP) in the compound's Connectivity Map profiles, 6 hr treatment
Description: as §1, §2, §3, §4, §5, §6

Compound	celastrol score (connectivity score) (celastrol signature)	gedunin score (connectivity score) (gedunin signature)	celastrol rank (celastrol signature; rank by celastrol score among 164 Connectivity Map compounds)	gedunin rank (gedunin signature; rank by gedunin score among 164 Connectivity Map compounds)
COc1cc2ncnc(Nc3ccc(F)c(Cl)c3)c2cc1OCCCN1CCOCC1 [gefitinib]	−0.713	0		
COC1=C2C[C@@H](C)C[C@H](OC)[C@H](O)[C@@H](C)/C=C(\C)[C@H](OC(N)=O)[C@@H](OC)/C=C\C=C(/C)C(=O)NC(=CC1=O)C2=O [geldanamycin, reference compound]	0.676	0.74		
O=c1c(-c2ccc(O)cc2)coc2cc(O)cc(O)c12 [genistein]	0.153	0.097		
CC#CCC(C)[C@H](O)/C=C/[C@@H]1[C@H]2C/C(=C/CCCC(=O)O)C[C@H]2C[C@H]1O (some centres unmarked) [iloprost]	0.098	0.101		
COc1ccc2c(c1)c(CC(=O)O)c(C)n2C(=O)c1ccc(Cl)cc1 [indometacin]	0.228	0.087		
C[C@H](CCC(=O)O)C[C@H](C)C[C@H](C)C(=O)/C=C(\O)[C@H](C)C[C@H](C)C/C=C/[C@@H](C)[C@@H](O)[C@@H](C)[C@@H](O)C[C@@H]1CC[C@@](C)([C@H]2CC[C@@](C)([C@@H](C)O)O2)O1 [ionomycin]	0.556	0.129		
S=c1nc[nH]c2nc[nH]c12 [mercaptopurine]	−0.121	0.21		
Nc1ccc(O)c(C(=O)O)c1 [mesalazine]	0	0		
CN(C)C(=N)N=C(N)N [metformin]	−0.029	−0.108		
CN(C)c1ccc(O)c2c1C[C@H]1C[C@H]3[C@H](N(C)C)C(O)=C(C(N)=O)C(=O)[C@@]3(O)C(O)=C1C2=O [minocycline]	0	0		
CCOC(=O)C1=C(C)NC(=S)NC1c1cccc(O)c1 (centres unmarked) [monastrol]	0.226	0.069		
CC[C@@]1([C@@H]2O[C@@H]([C@H]3O[C@@](O)(CO)[C@H](C)C[C@@H]3C)C[C@@H]2C)CC[C@H]([C@]2(C)CC[C@]3(C[C@H](O)[C@@H](C)[C@@H]([C@@H](C)[C@@H](OC)[C@H](C)C(=O)O)O3)O2)O1 [monensin]	0.454	0		
CCOC(=O)C1=C(C)NC(C)=C(C(=O)OC)C1c1cccc([N+](=O)[O-])c1 (centres unmarked) [nitrendipine]	0	0		
COC(=O)Nc1nc2ccc(C(=O)c3cccs3)cc2[nH]1 [nocodazole]	0.517	0.436		
CC(Cc1ccc(O)c(O)c1)C(C)Cc1ccc(O)c(O)c1 (centres unmarked) [nordihydroguaiaretic acid]	0.264	0.286		
CO[C@@H]1[C@@H](OC(N)=O)[C@@H](O)[C@H](Oc2ccc3c(O)c(NC(=O)c4ccc(O)c(CC=C(C)C)c4)c(=O)oc3c2C)OC1(C)C [novobiocin]	0.167	0.261		
CC[C@H]1/C=C/C=C/C[C@@H](C)[C@H](O)[C@@](C)(O)C(=O)[C@@H](C)[C@H](O)[C@@H](C)C(=O)[C@@H](C)[C@H](O)[C@@H](C)/C=C/C(=O)O[C@@H]2[C@H](C)[C@H](CC1)O[C@]1(CC[C@H](C)[C@H](C[C@@H](C)O)O1)[C@H]2C [oligomycin]	−0.491	0.305		
NC(=O)C(=O)O [oxamic acid]	−0.654	0		
O=C(O)CCc1nc(-c2ccccc2)c(-c2ccccc2)o1 [oxaprozin]	0.445	0.562		
CC(=O)O[C@H]1C(=O)[C@@]2(C)[C@H]([C@H](OC(=O)c3ccccc3)[C@]3(O)C[C@H](OC(=O)[C@H](O)[C@@H](NC(=O)c4ccccc4)c4ccccc4)C(C)=C1C3(C)C)[C@]1(OC(C)=O)CO[C@@H]1C[C@@H]2O [paclitaxel]	0.319	0		

Compound	celastrol score (connectivity score) (celastrol signature)	gedunin score (connectivity score) (gedunin signature)	celastrol rank (celastrol signature; rank by celastrol score among 164 Connectivity Map compounds)	gedunin rank (gedunin signature; rank by gedunin score among 164 Connectivity Map compounds)
N=C1C=CC(=C(c2ccc(N)cc2)c2ccc(N)cc2)C=C1 [pararosaniline]	0.579	0.496		
N=C(N)c1ccc(OCCCCCOc2ccc(C(=N)N)cc2)cc1 [pentamidine]	0	0.456		
O=c1[nH]c2ccccc2c2ccccc12 [phenanthridinone]	0.429	−1	32	164
[H]/N=C(/N)N/C(=N/[H])NCCc1ccccc1 [phenformin]	0.355	0		
Cc1ccc(N(CC2=NCCN2)c2cccc(O)c2)cc1 [phentolamine]	0	0		
N=C(N)NC(N)=Nc1ccccc1 [phenyl biguanide]	0	0		
Cc1cccc(Nc2cc(Cl)nc(SCC(=O)O)n2)c1C [pirinixic acid]	0.226	0.055		
C[C@]12C=CC(=O)C=C1CC[C@@H]1[C@@H]2[C@@H](O)C[C@@]2(C)[C@H]1CC[C@]2(O)C(=O)CO [prednisolone]	0	0		
CC(C)(Sc1cc(C(C)(C)C)c(O)c(C(C)(C)C)c1)Sc1cc(C(C)(C)C)c(O)c(C(C)(C)C)c1 [probucol]	0.332	0		
CN1CCN(CCCN2c3ccccc3Sc3ccc(Cl)cc32)CC1 [prochlorperazine]	0.559	0.507		
O=c1c(O)c(-c2ccc(O)c(O)c2)oc2cc(O)cc(O)c12 [quercetin]	−0.111	−0.431		
O=C(c1ccc(OCCN2CCCCC2)cc1)c1c(-c2ccc(O)cc2)sc2cc(O)ccc12 [raloxifene]	0	0.292		
Oc1ccc(C=Cc2cc(O)cc(O)c2)cc1 [resveratrol]	0.266	0.4		
CS(=O)(=O)c1ccc(C2=C(c3ccccc3)C(=O)OC2)cc1 [rofecoxib]	0.088	0.148		
CN(CCOc1ccc(CC2SC(=O)NC2=O)cc1)c1ccccn1 (centres unmarked) [rosiglitazone]	0.098	0		
CC(=O)c1c(O)c(C)c(O)c(Cc2c(O)c3c(c(C(=O)/C=C/c4ccccc4)c2O)OC(C)(C)C=C3)c1O [rottlerin]	0.355	0.209		
CO[C@H]1C[C@@H]2CC[C@@H](C)[C@@](O)(O2)C(=O)C(=O)N2CCCC[C@H]2C(=O)O[C@H]([C@H](C)C[C@@H]2CC[C@@H](O)[C@H](OC)C2)CC(=O)[C@H](C)/C=C(\C)[C@@H](O)[C@@H](OC)C(=O)[C@H](C)C[C@H](C)/C=C/C=C/C=C/1C [sirolimus]	−0.283	0		
O=C1CCc2c(ccc3ccccc23)O1 [splitomicin]	−0.525	0		
CN[C@@H]1C[C@H]2O[C@@](C)([C@@H]1OC)n1c3ccccc3c3c4c(c5c6ccccc6n2c5c31)C(=O)NC4 [staurosporine]	0.092	0		
